{
  "source": "paper PMC7707092",
  "about": "“Discovery and characterization of ORM‐11372, a novel inhibitor of the sodium‐calcium exchanger with positive inotropic activity” (British Journal of Pharmacology, 2020)",
  "target": "T1, rat NCX 1.1 current (I NCX) (Rattus norvegicus, UniProt Q01728)",
  "T1 construct": "In rat primary ventricular CMs, the magnitude of outward I NCX; endogenous in cells; host or cells: freshly isolated left ventricular cardiomyocytes of male Wistar rats",
  "test": "NCX current (I NCX), whole‐cell patch‐clamp in rat ventricular cardiomyocytes",
  "format": "cell-based",
  "procedure": "Rats were anaesthetized with sodium thiopental (0.1 g·kg^−1, i.p.) and injected with heparin sodium (500 IU, i.v.). Hearts were rapidly excised, mounted via the aorta on a Langendorff apparatus, and retrogradely perfused at 37°C with the Krebs–Henseleit solution for 5 min, with Krebs‐Henseleit solution (composition (in mM): 118.5 NaCl, 4 KCI, 2 CaCl2, 1 MgSO4, 1.2 NaH2PO4, 25 NaHCO3, and 11.1 glucose), pH 7.4 when saturated with a mixture of 95% O2 and 5% CO2. The perfusion of the heart was continued using Ca^2+‐free Krebs–Henseleit solution for 10 min, and completed by the addition of 0.05% collagenase (type I), 0.05% hyaluronidase, and 200‐μM CaCl2, for a further 10 min. Subsequently, the left ventricular myocardium was minced and gently agitated. Dissociated cells were stored at room temperature in a solution containing (in mM) 89 KOH, 70 glutamate, 15 taurine, 30 KCI, 10 KH2PO4,10 HEPES, 0.5 MgCl2, 11 glucose, and 0.5 EGTA, and the pH was set to 7.3 using KOH. […] One drop of the cell suspension was placed in a recording chamber and mounted on the stage of an inverted microscope (Olympus IX51, Olympus, Japan), and the individual myocytes were allowed to settle and adhere to the bottom of the chamber for at least 5 min before initiating superfusion.\nManual patch‐clamp recordings of membrane currents (I NCX, L‐type Ca^2+ channel current [I CaL], human cardiac sodium 1.5 current [I Na], and I hERG) were undertaken using either an Axopatch 200B or Axopatch ID amplifier (Molecular Devices, USA), using the whole‐cell configuration. Cells were at least initially (except when recording I Na) perfused with an extracellular solution consisting of (in mM) 143 NaCl, 4 KCl, 1.8 CaCl2, 1.2 MgCl2, 5 glucose, and 10 HEPES (pH 7.4 with NaOH; osmolarity adjusted to 301 ± 3 mOsm). A slightly modified version was used for the rat ventricular CMs (in mM: 144 NaCl, 0.4 NaH2PO4, 4.0 KCl, 1.8 CaCl2, 0.53 MgSO4, 5.5 glucose, and 5.0 HEPES). Patch pipettes were pulled with a P‐2000 or P‐97 micropipette puller (Sutter Instruments, USA) from borosilicate glass capillaries and had resistances of between 2 and 4 MΩ when filled with any of the pipette solutions (see below). The data were filtered at 1 or 2 kHz and digitized at 10 kHz with acquisition and analysis performed by use of pClamp software (Versions 8–10; Molecular Devices; RRID:SCR_011323).\nAfter the establishment of the whole‐cell configuration with hiPSC‐derived CMs or rat ventricular myocytes, the extracellular solution was switched to a K^+‐free bath solution as described earlier (Hobai, Khananshvili, & Levi, 1997; Jost et al., 2013). The solution was composed of (in mM) 135 NaCl, 10 CsCl, 1 CaCl2, 1 MgCl2, 0.2 BaCl2, 0.33 NaH2PO4, 10 TEACI, 10 HEPES, and 10 glucose supplemented with 20‐μM ouabain, 50‐μM lidocaine, and 1‐μM nisoldipine or 2‐μM nitrendipine at pH 7.0 (osmolarity adjusted to 301 ± 3 mOsm). The pipette solution contained (in mM) 140 CsOH, 75 aspartic acid, 20 TEACI, 5 MgATP, 10 HEPES, 20 NaCl, 20 EGTA, and 10 CaCl2 (pH adjusted to 7.2 with CsOH; osmolarity adjusted to 290 ± 2 mOsm). The free intracellular Ca^2+ level in the patch pipette was 140 nM according to Maxchelator (RRID:SCR_000459) software (Bers, Patton, & Nuccitelli, 2010).\nThe measurement of current in the K^+‐free bath solution using a ramp voltage protocol at 20‐s intervals represented the first control, after which values were measured in the presence of one or more increasing concentrations of ORM‐11372 and finally upon exposure to 10‐mM NiCl2. The voltage protocol consisted of voltage ramps (at a rate of 100 mV·s^−1) with a holding potential of […], which changed to −100 mV and then returned to −40 mV. I NCX was defined as the Ni^2+‐sensitive current value. However, for rat ventricular myocytes, the magnitude of the inward current (forward mode) was particularly small and variable. […]",
  "note": "“And” between values parts separate entries of the source, which are not always exact repeats. Equal entries are not always repeated. Where two headings read alike, the source gives them in different places.",
  "data": [
    {"smiles": "Nc1cccc(-c2ccc(CNc3ccc(F)cc3)o2)c1", "note": "[ORM‐11372]", "values": [
      {"measurement": "inhibition at 0.004 µM", "setting": "4 nM, read-out: in vitro NCX 1.1 current inhibition", "result": 34, "unit": "%"},
      {"measurement": "inhibition at 0.036 µM", "setting": "36 nM, read-out: in vitro NCX 1.1 current inhibition", "result": 67, "unit": "%"},
      {"measurement": "inhibition at 0.092 µM", "setting": "92 nM, read-out: in vitro NCX 1.1 current inhibition", "result": 79, "unit": "%"},
      {"measurement": "inhibition at 0.351 µM", "setting": "351 nM, read-out: in vitro NCX inhibition", "result": 90, "unit": "%"},
      {"measurement": "IC50", "setting": "rat CMs, summarised (discussion), read-out: IC50 rat NCX 1.1 currents", "result": 10, "unit": "nM"},
      {"measurement": "IC50", "setting": "rat primary ventricular CMs, read-out: IC50 outward I NCX (reverse mode)", "result": "11.3 nM and 11 nM"},
      {"measurement": "inhibition at 0.01 µM", "setting": "rat ventricular CMs, 10 nM, altered conditions to enhance inward current, n=3, read-out: inhibition of inward I NCX (forward mode)", "result": "53.8 ± 3.9", "unit": "%"}
    ]}
  ]
}
